Results on 17 molecules are retold here after patent US10590106B2, “Certain chemical entities, compositions, and methods” (NeuPharma, Inc., priority 2012, dated 2020).

For one assay, the target named is KDR (VEGFR2) (Homo sapiens (Human), UniProt P35968). The assay can be described thus: Inhibitory activity against kinase KDR, Z'-LYTE method (Invitrogen). The assay is classed as biochemical. The note with it: for inhibition at 1 µM: 1 μM compound, read-out: Inhibition (% inhibition at 1 μM) against KDR. As for the experimental part: Inhibitory activities of compounds against KDR (VEGFR2) were also measured by Invitrogen using Z′-LYTE® Method as described above with the following modification. The 2× KDR (VEGFR2)/Tyr 01 mixture is prepared in 50 mM HEPES pH 7.5, 0.01% BRIJ-35, 10 mM MgCl2, 1 mM EGTA. The final 10 μL Kinase Reaction consists of 0.5-11.7 ng KDR (VEGFR2) and 2 μM Tyr 01 in 50 mM HEPES pH 7.5, 0.01% BRIJ-35, 10 mM MgCl2, 1 mM EGTA. After the 1 hour Kinase Reaction incubation, 5 μL of a 1:256 dilution of Development Reagent B is added.
Chain of KDR (VEGFR2) (P35968 20-1356): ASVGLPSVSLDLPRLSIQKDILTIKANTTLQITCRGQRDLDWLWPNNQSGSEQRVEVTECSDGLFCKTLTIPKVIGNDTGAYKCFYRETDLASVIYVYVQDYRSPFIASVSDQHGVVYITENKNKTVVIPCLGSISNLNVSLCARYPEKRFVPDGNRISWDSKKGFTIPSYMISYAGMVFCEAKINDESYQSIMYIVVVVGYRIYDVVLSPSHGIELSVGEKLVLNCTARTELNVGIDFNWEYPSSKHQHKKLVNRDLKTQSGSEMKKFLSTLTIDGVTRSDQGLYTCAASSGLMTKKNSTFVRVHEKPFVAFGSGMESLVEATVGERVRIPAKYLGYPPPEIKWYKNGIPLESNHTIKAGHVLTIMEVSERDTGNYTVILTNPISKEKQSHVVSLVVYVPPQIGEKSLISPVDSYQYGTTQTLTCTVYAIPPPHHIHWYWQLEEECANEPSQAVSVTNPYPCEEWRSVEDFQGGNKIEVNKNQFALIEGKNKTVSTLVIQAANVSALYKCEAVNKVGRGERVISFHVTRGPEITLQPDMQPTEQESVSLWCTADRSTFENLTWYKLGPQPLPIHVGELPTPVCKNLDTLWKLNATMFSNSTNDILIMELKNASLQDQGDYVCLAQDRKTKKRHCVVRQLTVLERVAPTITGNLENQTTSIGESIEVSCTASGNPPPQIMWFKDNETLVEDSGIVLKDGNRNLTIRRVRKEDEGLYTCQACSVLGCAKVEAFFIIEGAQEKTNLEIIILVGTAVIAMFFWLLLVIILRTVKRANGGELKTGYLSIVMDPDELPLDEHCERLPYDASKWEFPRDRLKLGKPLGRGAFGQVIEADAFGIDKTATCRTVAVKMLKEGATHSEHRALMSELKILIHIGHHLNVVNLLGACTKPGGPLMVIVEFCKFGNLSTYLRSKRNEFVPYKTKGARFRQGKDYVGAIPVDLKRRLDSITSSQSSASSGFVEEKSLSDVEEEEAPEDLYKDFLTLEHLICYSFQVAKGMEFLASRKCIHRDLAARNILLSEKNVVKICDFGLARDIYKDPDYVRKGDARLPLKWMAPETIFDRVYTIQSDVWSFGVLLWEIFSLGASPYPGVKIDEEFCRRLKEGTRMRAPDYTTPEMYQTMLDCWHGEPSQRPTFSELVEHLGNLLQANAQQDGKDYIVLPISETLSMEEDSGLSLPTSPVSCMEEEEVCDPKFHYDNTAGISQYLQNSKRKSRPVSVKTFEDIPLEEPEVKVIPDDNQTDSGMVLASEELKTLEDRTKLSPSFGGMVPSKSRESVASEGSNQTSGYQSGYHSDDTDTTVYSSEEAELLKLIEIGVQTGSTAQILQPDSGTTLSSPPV
The scale utilized in Table 5 is as follows: +++ less than 100 nM; and ++ greater than 100 nM

A further assay addresses BRAF V600E (Homo sapiens (Human), UniProt P15056, V600E). The assay can be described thus: Inhibitory activity against kinase BRAF V600E, Z'-LYTE method (Invitrogen). The assay is classed as biochemical. The note with it: for inhibition at 1 µM: 1 μM compound, read-out: Inhibition (% inhibition at 1 μM) against BRAF V600E. The protocol: Inhibitory activities Inhibitory activities of compounds against BRAF, and BRAF V600E were measured by Invitrogen using Z′-LYTE® Method as briefly described in the following. 4× Test compounds are dissolved in 1% DMSO. […] ATP solutions are diluted to a 4×ATP working concentration in Kinase Buffer (50 mM HEPES pH 7.5, 0.01% BRIJ-35, 10 mM MgCl2, 1 mM EGTA). Reaction started by 30-second shaking of mixture consisting of 2.5 μL 4× test compound, […] and 2.5 μL 4×ATP Solution on Bar-coded Corning, low volume NBS, black 384-well plate (Corning Cat. #3676). Then the mixture was incubated for 60-minute at room temperature for the kinase reaction, followed by addition of 5 μL of a 1:1024 dilution of development reagent A and 30-second plate shake. The mixture was then incubated for another 60-minute at room temperature for development reaction. Fluorescence was read by plate reader. IC50 was calculated by plotting the concentration of compound vs the percentage of inhibition in treated wells using GraphPad Prism 5.
Table 2 and 3 show % inhibition at 1 μM of several compounds of the invention against BRAF and BRAF V600E, respectively, using Z′-LYTE® method.
The scale utilized in Table 4 is as follows: +++ less than 100 nM; and ++ greater than 100 nM.

Another assay concerns A375 cells. The assay can be described thus: Inhibition of cancer cell growth, MTT or MTS assay, A375. It counts as cell-based. The note with it: Homo sapiens, A-375; 72 h incubation. As for the experimental part:
(§1) Inhibition of cell growth by compounds was measured using MTT or MTS assay. Tumor cell lines were purchased from ATCC (American Type Culture Collection, Manassas, Va.). All cell lines were maintained in RPMI 1640 (Hyclone) supplemented with 10% fetal bovine serum (FBS, Hyclone), glutamine (2 mM, Hyclone), and antibiotics (penicillin 100 U/mL and streptomycin 50 μg/mL) at 37° C. in a humidified atmosphere of 5% CO2 in air. Taxol (as a positive control, Sigma) and compounds were dissolved in DMSO (Sigma), and the final concentration of DMSO in the medium was 1%. Tumor cells were plated in 96-well plates at densities of about 2000 (A375) or 4000 (A549 and Colo205) cells/well of a 96-well plate and allowed to adhere/grow for 24 h. They were then treated with various concentrations of drug and incubated for 72 h. For MTT method, medium was then removed by inverting and tapping the plates. 100 μL of MTT (0.5 mg/ml) was added to each well followed by an incubated at 37° C. for 4 h. MTT was then removed and 200 μL of DMSO was added to each well, and the ODs at 570 nm were measured after a 5 second shaking cycle in a 96-well spectrophotometer. For MTS method, 20 μL MTS (CellTiter 96 Aqueous One Solution, Promega) was added to each well followed by an incubated at 37° C. for 2-4 h, solutions were then directly put in a 96-well spectrophotometer, and the ODs at 490 nm were measured.
(§2) All concentrations of compounds were tested in triplicate and controls were averaged over 4 wells. IC50 was calculated by plotting the concentration of compound vs the percentage of inhibition in treated wells using GraphPad Prism 5. […] The scale utilized in Tables […] is as follows: +++ less than 1000 nM; ++ between 1000 nM and 5000 nM; and + greater than 5000 nM. The scale utilized in Table 8 is as follows: +++ less than 2000 nM; ++ between 2000 nM and 5000 nM; and + greater than 5000 nM.
For orientation: Tetrazolium dyes change colour on reduction, which living cells bring about.

For a further assay, the system named is A549 cells. The assay can be described thus: Inhibition of cancer cell growth, MTT or MTS assay, A549. Particulars: Homo sapiens, 72 h incubation. It counts as cell-based. As for the experimental part:
as §1, §2

Where only a bound is given, the exact number is not on record here.

Broadly, the inhibition is the relative decrease from the control value, in per cent. By IC50 is commonly meant the concentration at which inhibition is half-maximal.

Chain of BRAF V600E (P15056 whole entry V600E): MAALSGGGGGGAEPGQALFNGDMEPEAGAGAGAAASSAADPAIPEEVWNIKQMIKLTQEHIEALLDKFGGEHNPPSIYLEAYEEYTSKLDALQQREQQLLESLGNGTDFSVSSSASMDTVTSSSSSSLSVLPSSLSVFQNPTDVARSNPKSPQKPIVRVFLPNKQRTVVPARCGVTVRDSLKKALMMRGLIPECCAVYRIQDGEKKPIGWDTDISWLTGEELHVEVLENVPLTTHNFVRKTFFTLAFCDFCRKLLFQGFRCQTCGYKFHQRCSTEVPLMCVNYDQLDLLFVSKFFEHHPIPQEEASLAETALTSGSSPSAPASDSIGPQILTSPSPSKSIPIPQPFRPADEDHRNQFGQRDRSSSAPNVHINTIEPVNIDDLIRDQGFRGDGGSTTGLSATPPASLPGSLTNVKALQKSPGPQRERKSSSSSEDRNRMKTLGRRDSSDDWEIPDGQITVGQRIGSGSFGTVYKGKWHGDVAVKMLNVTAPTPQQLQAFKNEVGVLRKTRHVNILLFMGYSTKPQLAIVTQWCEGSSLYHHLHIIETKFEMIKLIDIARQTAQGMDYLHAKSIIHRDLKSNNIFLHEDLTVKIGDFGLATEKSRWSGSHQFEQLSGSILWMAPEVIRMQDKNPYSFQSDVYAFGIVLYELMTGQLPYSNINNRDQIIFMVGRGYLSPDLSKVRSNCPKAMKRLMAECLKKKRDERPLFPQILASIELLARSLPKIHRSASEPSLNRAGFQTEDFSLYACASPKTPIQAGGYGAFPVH

As to `O=C(Nc1cc(F)cc(Oc2ccc3ncc(N4CCOCC4)nc3c2)c1)c1ccc(Cl)c(C(F)(F)F)c1` [Compound C029, 4-chloro-N-(3-fluoro-5-((3-morpholinoquinoxalin-6-yl)oxy)phenyl)-3-(trifluoromethyl)benzamide], the inhibition at 1 µM on KDR (VEGFR2) and on BRAF V600E was 70 to 89% in each case. Also, the IC50 in the assay on A375 cells lay within 1 to 5 µM; with A549 cells, 2 to 5 µM.
On to `O=C(Nc1cccc(F)c1)Nc1cc(F)cc(Oc2ccc3ncc(N4CCOCC4)nc3c2)c1` [Compound C031, 1-(3-fluoro-5-((3-morpholinoquinoxalin-6-yl)oxy)phenyl)-3-(3-fluorophenyl)urea], for which the inhibition at 1 µM on KDR (VEGFR2) was less than 70%; at BRAF V600E, greater than 89%. Moreover, the IC50 in the assay with A375 cells and in the assay with A549 cells was greater than 5 µM throughout.
As for `O=C(Nc1ccc(F)c(Oc2ccc3ncc(N4CCOCC4)nc3c2)c1)Nc1ccc(Cl)c(C(F)(F)F)c1` [Compound C009, 1-(4-chloro-3-(trifluoromethyl)phenyl)-3-(4-fluoro-3-((3-morpholinoquinoxalin-6-yl)oxy)phenyl)urea], the IC50 against KDR (VEGFR2) is greater than 0.1 µM; against BRAF V600E it was greater than 0.1 µM; in the assay with A375 cells, less than 1 µM; with A549 cells, less than 2 µM. The inhibition at 1 µM was greater than 89% on KDR (VEGFR2) and less than 70% at BRAF V600E.
With `O=C(Nc1ccc(F)c(C(F)(F)F)c1)Nc1ccc(Oc2ccc3nccnc3c2)cc1F` [Compound C098, 1-(4-fluoro-3-(trifluoromethyl)phenyl)-3-(2-fluoro-4-(quinoxalin-6-yloxy)phenyl)urea], the inhibition at 1 µM on KDR (VEGFR2) was less than 70%; on BRAF V600E, 70 to 89%. The results for the IC50 in the assay with A375 cells and in the assay on A549 cells were 1 to 5 µM and greater than 5 µM, respectively.
For `O=C(Nc1cccc(Oc2ccc3ncc(N4CCOCC4)nc3c2)c1)Nc1cccc(C(F)(F)F)c1` [Compound C046, 1-(3-((3-morpholinoquinoxalin-6-yl)oxy)phenyl)-3-(3-(trifluoromethyl)phenyl)urea], in that order: 70 to 89%, greater than 89%, 1 to 5 µM and 2 to 5 µM.
For the molecule `O=C(Nc1ccc(Oc2ccc3ncc(N4CCOCC4)nc3c2)cc1)Nc1ccc(F)c(C(F)(F)F)c1` [Compound C086, 1-(4-fluoro-3-(trifluoromethyl)phenyl)-3-(4-((3-morpholinoquinoxalin-6-yl)oxy)phenyl)urea], the inhibition at 1 µM on KDR (VEGFR2) was greater than 89%; at BRAF V600E it was 70 to 89%. The IC50 lay within 1 to 5 µM in the assay with A375 cells and 2 to 5 µM with A549 cells.
Regarding `O=C(Nc1ccc(F)c(Oc2ccc3nccnc3c2)c1)c1cccc(C(F)(F)F)c1` [Compound C018, N-(4-fluoro-3-(quinoxalin-6-yloxy)phenyl)-3-(trifluoromethyl)benzamide], the inhibition at 1 µM at KDR (VEGFR2) was 70 to 89%; at BRAF V600E it was greater than 89%. For the same molecule, the figures for the IC50 in the assay on A375 cells and with A549 cells were 1 to 5 µM and greater than 5 µM, respectively.
Consider `O=C(Nc1ccc(F)c(Oc2ccc3ncc(N4CCOCC4)nc3c2)c1)c1cccc(F)c1` [Compound C025, 3-fluoro-N-(4-fluoro-3-((3-morpholinoquinoxalin-6-yl)oxy)phenyl)benzamide], for which the inhibition at 1 µM on KDR (VEGFR2) and on BRAF V600E was 70 to 89% throughout. Also, the IC50 in the assay on A375 cells and in the assay on A549 cells was greater than 5 µM each time.
For `O=C(Nc1cccc(C(F)(F)F)c1)Nc1ccc(F)c(Oc2ccc3ncc(N4CCOCC4)nc3c2)c1` [Compound C035, 1-(4-fluoro-3-((3-morpholinoquinoxalin-6-yl)oxy)phenyl)-3-(3-(trifluoromethyl)phenyl)urea], the inhibition at 1 µM on KDR (VEGFR2) and at BRAF V600E was 70 to 89% throughout. Besides, the IC50 in the assay with A375 cells is less than 1 µM; with A549 cells, 2 to 5 µM.
On to `O=C(Nc1ccc(F)c(Oc2ccc3nccnc3c2)c1)c1ccc(Cl)c(C(F)(F)F)c1` [Compound C010, 4-chloro-N-(4-fluoro-3-(quinoxalin-6-yloxy)phenyl)-3-(trifluoromethyl)benzamide], for which the inhibition at 1 µM on KDR (VEGFR2) and at BRAF V600E was 70 to 89% throughout. Also, the IC50 in the assay with A375 cells is greater than 5 µM; in the assay with A549 cells it was 2 to 5 µM.
With `O=C(Nc1ccc(F)c(Oc2ccc3ncc(N4CCOCC4)nc3c2)c1)c1cccc(C(F)(F)F)c1` [Compound C026, N-(4-fluoro-3-((3-morpholinoquinoxalin-6-yl)oxy)phenyl)-3-(trifluoromethyl)benzamide], the inhibition at 1 µM at KDR (VEGFR2) was greater than 89%; on BRAF V600E it was 70 to 89%. The 50% inhibitory concentration (IC50) in the assay on A375 cells is 1 to 5 µM; in the assay on A549 cells, 2 to 5 µM.
Turning to `O=C(Nc1cccc(F)c1)Nc1ccc(F)c(Oc2ccc3nccnc3c2)c1` [Compound C023, 1-(4-fluoro-3-(quinoxalin-6-yloxy)phenyl)-3-(3-fluorophenyl)urea], the results for the inhibition at 1 µM on KDR (VEGFR2) and at BRAF V600E were less than 70% and greater than 89%, respectively. The figures for the IC50 in the assay on A375 cells and in the assay with A549 cells were 1 to 5 µM and 2 to 5 µM, respectively.
For `O=C(Nc1cc(F)cc(Oc2ccc3nccnc3c2)c1)c1cccc(C(F)(F)F)c1` [Compound C015, N-(3-fluoro-5-(quinoxalin-6-yloxy)phenyl)-3-(trifluoromethyl)benzamide], in that order: less than 70%, greater than 89%, greater than 5 µM and greater than 5 µM.
For `O=C(Nc1ccc(Cl)c(C(F)(F)F)c1)Nc1ccc(Oc2ccc3nccnc3c2)cc1F` [Compound C095, 1-(4-chloro-3-(trifluoromethyl)phenyl)-3-(2-fluoro-4-(quinoxalin-6-yloxy)phenyl)urea], the values for the inhibition at 1 µM at KDR (VEGFR2) and on BRAF V600E were 70 to 89% and less than 70%, respectively. The IC50 was greater than 5 µM in the assay on A375 cells and 2 to 5 µM with A549 cells.
The like results for `O=C(Nc1ccc(Oc2ccc3ncc(N4CCOCC4)nc3c2)cc1)Nc1ccc(Cl)c(C(F)(F)F)c1` [Compound C084, 1-(4-chloro-3-(trifluoromethyl)phenyl)-3-(4-((3-morpholinoquinoxalin-6-yl)oxy)phenyl)urea] were, in that order, greater than 89%, 70 to 89%, 1 to 5 µM and 2 to 5 µM.
`O=C(Nc1cc(F)cc(Oc2ccc3ncc(N4CCOCC4)nc3c2)c1)c1cccc(F)c1` [Compound C027, 3-fluoro-N-(3-fluoro-5-((3-morpholinoquinoxalin-6-yl)oxy)phenyl)benzamide]: the inhibition at 1 µM on KDR (VEGFR2) and at BRAF V600E was 70 to 89% in each case. In addition, the results for the IC50 with A375 cells and in the assay on A549 cells were 1 to 5 µM and greater than 5 µM, respectively.
As to `O=C(Nc1ccc(F)c(Oc2ccc3nccnc3c2)c1)Nc1ccc(Cl)c(C(F)(F)F)c1` [Compound C011, 1-(4-chloro-3-(trifluoromethyl)phenyl)-3-(4-fluoro-3-(quinoxalin-6-yloxy)phenyl)urea], the inhibition at 1 µM on KDR (VEGFR2) was 70 to 89%; on BRAF V600E it was less than 70%. Besides, the results for the IC50 in the assay with A375 cells and in the assay with A549 cells were less than 1 µM and less than 2 µM, respectively.
